In patent US10266609B2, “Immunomodulating beta-1,6-D-glucans” (Innate Biotherapeutics, LLC, priority 2014, dated 2019):

What follows are compounds tested on Anti-β-1,6-Glucan IgG antibodies (affinity purified from IVIG, Baxter) (assay: ELISA: binding of oligosaccharides to anti-β-1,6-glucan antibodies). Settings: plate coated with oligosaccharide in PBS; 40 ug/mL anti-Beta 1,6 Glucan IgG; anti-human IgG-HRP, TMB, absorbance at 620 nm.
Protocol: Binding of oligosaccharides to anti-β-1,6-glucan antibodies is performed as described in the following protocol.
• 1. […] Anti-β-1,6-Glucan IgG antibodies (affinity purified from IVIG, Baxter) • 6. […] PBS-Tween buffer (PH 7.2, 0.05% Tween 20, Kpl cat #51-12-01) II. Method: Detection of Anti-Beta Glucan IgG by ELISA • 1. Coat plate with oligosaccharides in PBS overnight at 4° C. • 2. Wash 3 times with 250 uL of PBS-Tween • 3. Empty plate • 4. Block plate with 200 uL of Casein for 1 hour at room temperature • 5. Empty plate • 6. Add 40 ug/mL anti-Beta 1,6 Glucan IgG (4 ug/well) in Casein • 7. Incubate for 45 min at room temperature • 8. Wash 3 times with 250 uL of PBS-Tween • 9. Empty plate • 10. Add detection antibody: anti-human IgG-HRP at 1:5000—in casein. Incubate for 45 min at room temperature in the dark • 11. Wash 5 times with 250 uL of PBS-Tween • 12. Empty plate • 13. Add 100 uL of one step ultra TMB • 14. Measure the absorbance at 620 nm every 1 min for 60 min Tables 1-3 provide ELISA assay data for certain glucan compounds.
Further: key: a plus (+) sign indicates that the glucan was active in the assay; a minus (−) sign indicates that the glucan was not active; the '+/−' symbol indicates inconclusive results.

| SMILES | ELISA assay data: glucan active in detection of anti-beta glucan IgG |
| --- | --- |
| O=C(O)c1cc(OCc2cn(CCO[C@@H]3O[C@H](CO[C@@H]4O[C@H](CO[C@@H]5O[C@H](CO[C@@H]6O[C@H](CO[C@@H]7O[C@H](CO[C@@H]8O[C@H](CO)[C@@H](O)[C@H](O)[C@H]8O)[C@@H](O)[C@H](O)[C@H]7O)[C@@H](O)[C@H](O)[C@H]6O)[C@@H](O)[C@H](O)[C@H]5O)[C@@H](O)[C@H](O)[C@H]4O)[C@@H](O)[C@H](O)[C@H]3O)nn2)cc(OCc2cn(CCO[C@@H]3O[C@H](CO[C@@H]4O[C@H](CO[C@@H]5O[C@H](CO[C@@H]6O[C@H](CO[C@@H]7O[C@H](CO[C@@H]8O[C@H](CO)[C@@H](O)[C@H](O)[C@H]8O)[C@@H](O)[C@H](O)[C@H]7O)[C@@H](O)[C@H](O)[C@H]6O)[C@@H](O)[C@H](O)[C@H]5O)[C@@H](O)[C@H](O)[C@H]4O)[C@@H](O)[C@H](O)[C@H]3O)nn2)c1 [(β-D-glucopyanosy1-1,6)nβ-O(CH2)2-, n=6, 3,5-bis(1[2-[O-β-D-glucopyranosyl-(1→6)]6oxy]ethyl-1H-1,2,3-triazol-4-yl)methoxybenzoic acid] | + |
| COC1O[C@H](CO[C@@H]2O[C@H](CO[C@@H]3O[C@H](CO)[C@@H](O)[C@H](O)[C@H]3O)[C@@H](O)[C@H](O)[C@H]2O)[C@@H](O)[C@H](O)[C@H]1O (stereo partly drawn) [OCH3, n=3, methyl [O-β-D-glucopyranosyl-1,6]2-D-glucopyranoside] | + |
| COC1O[C@H](CO[C@@H]2O[C@H](CO[C@@H]3O[C@H](CO[C@@H]4O[C@H](CO)[C@@H](O)[C@H](O)[C@H]4O)[C@@H](O)[C@H](O)[C@H]3O)[C@@H](O)[C@H](O)[C@H]2O)[C@@H](O)[C@H](O)[C@H]1O (stereo partly drawn) [OCH3, n=4, methyl [O-β-D-glucopyranosyl-1,6]3-D-glucopyranoside] | + |
| COC1O[C@H](CO[C@@H]2O[C@H](CO[C@@H]3O[C@H](CO[C@@H]4O[C@H](CO[C@@H]5O[C@H](CO)[C@@H](O)[C@H](O)[C@H]5O)[C@@H](O)[C@H](O)[C@H]4O)[C@@H](O)[C@H](O)[C@H]3O)[C@@H](O)[C@H](O)[C@H]2O)[C@@H](O)[C@H](O)[C@H]1O (stereo partly drawn) [OCH3, n=5, methyl [O-β-D-glucopyranosyl-1,6-]4-D-glucopyranoside] | + |
| CO[C@H]1O[C@H](CO[C@@H]2O[C@H](CO[C@@H]3O[C@H](CO[C@@H]4O[C@H](CO[C@@H]5O[C@H](CO[C@@H]6O[C@H](CO)[C@@H](O)[C@H](O)[C@H]6O)[C@@H](O)[C@H](O)[C@H]5O)[C@@H](O)[C@H](O)[C@H]4O)[C@@H](O)[C@H](O)[C@H]3O)[C@@H](O)[C@H](O)[C@H]2O)[C@@H](O)[C@H](O)[C@H]1O [OCH3, n=6, methyl [O-β-D-glucopyranosyl-1,6]5-D-glucopyranoside] | + |
| COC1O[C@H](CO[C@@H]2O[C@H](CO[C@@H]3O[C@H](CO[C@@H]4O[C@H](CO[C@@H]5O[C@H](CO[C@@H]6O[C@H](CO[C@@H]7O[C@H](CO)[C@@H](O)[C@H](O)[C@H]7O)[C@@H](O)[C@H](O)[C@H]6O)[C@@H](O)[C@H](O)[C@H]5O)[C@@H](O)[C@H](O)[C@H]4O)[C@@H](O)[C@H](O)[C@H]3O)[C@@H](O)[C@H](O)[C@H]2O)[C@@H](O)[C@H](O)[C@H]1O (stereo partly drawn) [OCH3, n=7, methyl [O-β-D-glucopyranosyl-1,6]6-D-glucopyranoside] | + |
| COC1O[C@H](CO[C@@H]2O[C@H](CO[C@@H]3O[C@H](CO[C@@H]4O[C@H](CO[C@@H]5O[C@H](CO[C@@H]6O[C@H](CO[C@@H]7O[C@H](CO[C@@H]8O[C@H](CO)[C@@H](O)[C@H](O)[C@H]8O)[C@@H](O)[C@H](O)[C@H]7O)[C@@H](O)[C@H](O)[C@H]6O)[C@@H](O)[C@H](O)[C@H]5O)[C@@H](O)[C@H](O)[C@H]4O)[C@@H](O)[C@H](O)[C@H]3O)[C@@H](O)[C@H](O)[C@H]2O)[C@@H](O)[C@H](O)[C@H]1O (stereo partly drawn) [OCH3, n=8, methyl [O-β-D-glucopyranosyl-1,6]7-D-glucopyranoside] | + |
| COC1O[C@H](CO[C@@H]2O[C@H](CO[C@@H]3O[C@H](CO[C@@H]4O[C@H](CO[C@@H]5O[C@H](CO[C@@H]6O[C@H](CO[C@@H]7O[C@H](CO[C@@H]8O[C@H](CO[C@@H]9O[C@H](CO)[C@@H](O)[C@H](O)[C@H]9O)[C@@H](O)[C@H](O)[C@H]8O)[C@@H](O)[C@H](O)[C@H]7O)[C@@H](O)[C@H](O)[C@H]6O)[C@@H](O)[C@H](O)[C@H]5O)[C@@H](O)[C@H](O)[C@H]4O)[C@@H](O)[C@H](O)[C@H]3O)[C@@H](O)[C@H](O)[C@H]2O)[C@@H](O)[C@H](O)[C@H]1O (stereo partly drawn) [OCH3, n=9, methyl [O-β-D-glucopyranosyl-1,6]8-D-glucopyranoside] | + |
| COC1O[C@H](CO[C@@H]2O[C@H](CO[C@@H]3O[C@H](CO[C@@H]4O[C@H](CO[C@@H]5O[C@H](CO[C@@H]6O[C@H](CO[C@@H]7O[C@H](CO[C@@H]8O[C@H](CO[C@@H]9O[C@H](CO[C@@H]%10O[C@H](CO)[C@@H](O)[C@H](O)[C@H]%10O)[C@@H](O)[C@H](O)[C@H]9O)[C@@H](O)[C@H](O)[C@H]8O)[C@@H](O)[C@H](O)[C@H]7O)[C@@H](O)[C@H](O)[C@H]6O)[C@@H](O)[C@H](O)[C@H]5O)[C@@H](O)[C@H](O)[C@H]4O)[C@@H](O)[C@H](O)[C@H]3O)[C@@H](O)[C@H](O)[C@H]2O)[C@@H](O)[C@H](O)[C@H]1O (stereo partly drawn) [OCH3, n=10, methyl [O-β-D-glucopyranosyl-1,6]9-D-glucopyranoside] | + |
| COC1O[C@H](CO[C@@H]2O[C@H](CO[C@@H]3O[C@H](CO[C@@H]4O[C@H](CO[C@@H]5O[C@H](CO[C@@H]6O[C@H](CO[C@@H]7O[C@H](CO[C@@H]8O[C@H](CO[C@@H]9O[C@H](CO[C@@H]%10O[C@H](CO[C@@H]%11O[C@H](CO)[C@@H](O)[C@H](O)[C@H]%11O)[C@@H](O)[C@H](O)[C@H]%10O)[C@@H](O)[C@H](O)[C@H]9O)[C@@H](O)[C@H](O)[C@H]8O)[C@@H](O)[C@H](O)[C@H]7O)[C@@H](O)[C@H](O)[C@H]6O)[C@@H](O)[C@H](O)[C@H]5O)[C@@H](O)[C@H](O)[C@H]4O)[C@@H](O)[C@H](O)[C@H]3O)[C@@H](O)[C@H](O)[C@H]2O)[C@@H](O)[C@H](O)[C@H]1O (stereo partly drawn) [OCH3, n=11, methyl [O-β-D-glucopyranosyl-1,6]10-D-glucopyranoside] | + |
| OC[C@H]1O[C@@H](OC[C@H]2OC(O)[C@H](O)[C@@H](O)[C@@H]2O)[C@H](O)[C@@H](O)[C@@H]1O (stereo partly drawn) [OH, n=2] | + |
| OC[C@H]1O[C@@H](OC[C@H]2O[C@@H](OC[C@H]3OC(O)[C@H](O)[C@@H](O)[C@@H]3O)[C@H](O)[C@@H](O)[C@@H]2O)[C@H](O)[C@@H](O)[C@@H]1O (stereo partly drawn) [OH, n=3] | + |
| OCC1OC(OCC2OC(OCC3OC(OCC4OC(O)C(O)C(O)C4O)C(O)C(O)C3O)C(O)C(O)C2O)C(O)C(O)C1O (stereo not drawn) [OH, n=4] | + |
| OCC1OC(OCC2OC(OCC3OC(OCC4OC(OCC5OC(O)C(O)C(O)C5O)C(O)C(O)C4O)C(O)C(O)C3O)C(O)C(O)C2O)C(O)C(O)C1O (stereo not drawn) [OH, n=5] | + |
| OCC1OC(OCC2OC(OCC3OC(OCC4OC(OCC5OC(OCC6OC(OCC7OC(OCC8OC(O)C(O)C(O)C8O)C(O)C(O)C7O)C(O)C(O)C6O)C(O)C(O)C5O)C(O)C(O)C4O)C(O)C(O)C3O)C(O)C(O)C2O)C(O)C(O)C1O (stereo not drawn) [OH, n=8] | + |
| OCC1OC(OCC2OC(OCC3OC(OCC4OC(OCC5OC(OCC6OC(OCC7OC(OCC8OC(OCC9OC(O)C(O)C(O)C9O)C(O)C(O)C8O)C(O)C(O)C7O)C(O)C(O)C6O)C(O)C(O)C5O)C(O)C(O)C4O)C(O)C(O)C3O)C(O)C(O)C2O)C(O)C(O)C1O (stereo not drawn) [OH, n=9] | + |
| OC[C@H]1O[C@@H](OC[C@H]2O[C@@H](OC[C@H]3O[C@@H](OC[C@H]4O[C@@H](OC[C@H]5O[C@@H](OC[C@H]6O[C@@H](OC[C@H]7O[C@@H](OC[C@H]8O[C@@H](OC[C@H]9O[C@@H](OC[C@H]%10OC(O)[C@H](O)[C@@H](O)[C@@H]%10O)[C@H](O)[C@@H](O)[C@@H]9O)[C@H](O)[C@@H](O)[C@@H]8O)[C@H](O)[C@@H](O)[C@@H]7O)[C@H](O)[C@@H](O)[C@@H]6O)[C@H](O)[C@@H](O)[C@@H]5O)[C@H](O)[C@@H](O)[C@@H]4O)[C@H](O)[C@@H](O)[C@@H]3O)[C@H](O)[C@@H](O)[C@@H]2O)[C@H](O)[C@@H](O)[C@@H]1O (stereo partly drawn) [OH, n=10, [O-β-D-glucopyranosyl-1,6-]9-D-glucose] | + |
| OC[C@H]1O[C@@H](OC[C@H]2O[C@@H](OC[C@H]3O[C@@H](OC[C@H]4O[C@@H](OC[C@H]5O[C@@H](OC[C@H]6O[C@@H](OC[C@H]7O[C@@H](OC[C@H]8O[C@@H](OC[C@H]9O[C@@H](OC[C@H]%10O[C@@H](OC[C@H]%11OC(O)[C@H](O)[C@@H](O)[C@@H]%11O)[C@H](O)[C@@H](O)[C@@H]%10O)[C@H](O)[C@@H](O)[C@@H]9O)[C@H](O)[C@@H](O)[C@@H]8O)[C@H](O)[C@@H](O)[C@@H]7O)[C@H](O)[C@@H](O)[C@@H]6O)[C@H](O)[C@@H](O)[C@@H]5O)[C@H](O)[C@@H](O)[C@@H]4O)[C@H](O)[C@@H](O)[C@@H]3O)[C@H](O)[C@@H](O)[C@@H]2O)[C@H](O)[C@@H](O)[C@@H]1O (stereo partly drawn) [OH, n=11, [O-β-D-glucopyranosyl-1,6]10-D-glucose] | + |
